Assay results taken from patent US10077261B2, “Imidazolin-5-one derivative useful as FASN inhibitors for the treatment of cancer” (Janssen Pharmaceutica NV, priority 2012, dated 2018).

Assays:
[1] = molecular target: Fatty Acid Synthase Keto-reductase Domain (FASN KR) (Homo sapiens, UniProt P49327); assay: Fatty Acid Synthase keto-reductase domain (FASN KR) inhibition, NADPH oxidation at 340 nm
Method: After 20 minutes incubation at room temperature the plate was measured again (T2).
The decrease in absorbance was calculated as (Absorbance before incubation T1)−(Absorbance following incubation T2).
A plot of Controlmin versus test compound concentration was fitted to a 4-parameter logistic curve using a non-linear least squares regression method.

[2] = molecular target: T1, hFASN enzyme (full length) (Homo sapiens, UniProt P49327); assay: Fatty Acid Synthase (FASN) inhibition scintillation proximity assay; assay type: biochemical; details: for inhibition at 10 µM: read-out: Human FASN % inhibition @ 10 μM, 10 μM test compound; for IC50: read-out: Human FASN pIC50 (converted)
T1 construct: 10 μL hFASN enzyme (full length, 300 ng, purified in house); made in house
How it was run: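 Compounds at 0.01–30 μM were mixed with 300 ng purified full-length enzyme in 100 mM KH2PO4 pH 7.5, 1 mM DTT. Substrates ³H-acetyl-CoA and malonyl-CoA were then converted, and bead addition stopped the reaction. Signal was normalised to low and high plate controls and fitted by 4-parameter nonlinear regression.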

A2780 ovarian cells [3] = assay: A2780 ovarian cell proliferation assay in lipid reduced medium, with palmitate (MTT); assay type: cell-based; details: Homo sapiens, A2780, 96 h; read-out: pIC50 A2780 Ovarian Cell, With Palmitate (converted)
How it was run: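 Seeded cells were switched next day to lipid-reduced serum, exposed to compound and 25 μM palmitate complexed with fatty-acid-free BSA, and incubated 96 h. Proliferation was then determined by MTT absorbance at 544 nm, with a best-fit curve of signal against concentration.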

A2780 ovarian cells [4] = assay: A2780 ovarian cell proliferation assay in lipid reduced medium, without palmitate (MTT); assay type: cell-based; details: Homo sapiens, A2780, 96 h; read-out: pIC50 A2780 Ovarian Cell, Without Palmitate (converted)

T1 sequence (P49327 whole entry): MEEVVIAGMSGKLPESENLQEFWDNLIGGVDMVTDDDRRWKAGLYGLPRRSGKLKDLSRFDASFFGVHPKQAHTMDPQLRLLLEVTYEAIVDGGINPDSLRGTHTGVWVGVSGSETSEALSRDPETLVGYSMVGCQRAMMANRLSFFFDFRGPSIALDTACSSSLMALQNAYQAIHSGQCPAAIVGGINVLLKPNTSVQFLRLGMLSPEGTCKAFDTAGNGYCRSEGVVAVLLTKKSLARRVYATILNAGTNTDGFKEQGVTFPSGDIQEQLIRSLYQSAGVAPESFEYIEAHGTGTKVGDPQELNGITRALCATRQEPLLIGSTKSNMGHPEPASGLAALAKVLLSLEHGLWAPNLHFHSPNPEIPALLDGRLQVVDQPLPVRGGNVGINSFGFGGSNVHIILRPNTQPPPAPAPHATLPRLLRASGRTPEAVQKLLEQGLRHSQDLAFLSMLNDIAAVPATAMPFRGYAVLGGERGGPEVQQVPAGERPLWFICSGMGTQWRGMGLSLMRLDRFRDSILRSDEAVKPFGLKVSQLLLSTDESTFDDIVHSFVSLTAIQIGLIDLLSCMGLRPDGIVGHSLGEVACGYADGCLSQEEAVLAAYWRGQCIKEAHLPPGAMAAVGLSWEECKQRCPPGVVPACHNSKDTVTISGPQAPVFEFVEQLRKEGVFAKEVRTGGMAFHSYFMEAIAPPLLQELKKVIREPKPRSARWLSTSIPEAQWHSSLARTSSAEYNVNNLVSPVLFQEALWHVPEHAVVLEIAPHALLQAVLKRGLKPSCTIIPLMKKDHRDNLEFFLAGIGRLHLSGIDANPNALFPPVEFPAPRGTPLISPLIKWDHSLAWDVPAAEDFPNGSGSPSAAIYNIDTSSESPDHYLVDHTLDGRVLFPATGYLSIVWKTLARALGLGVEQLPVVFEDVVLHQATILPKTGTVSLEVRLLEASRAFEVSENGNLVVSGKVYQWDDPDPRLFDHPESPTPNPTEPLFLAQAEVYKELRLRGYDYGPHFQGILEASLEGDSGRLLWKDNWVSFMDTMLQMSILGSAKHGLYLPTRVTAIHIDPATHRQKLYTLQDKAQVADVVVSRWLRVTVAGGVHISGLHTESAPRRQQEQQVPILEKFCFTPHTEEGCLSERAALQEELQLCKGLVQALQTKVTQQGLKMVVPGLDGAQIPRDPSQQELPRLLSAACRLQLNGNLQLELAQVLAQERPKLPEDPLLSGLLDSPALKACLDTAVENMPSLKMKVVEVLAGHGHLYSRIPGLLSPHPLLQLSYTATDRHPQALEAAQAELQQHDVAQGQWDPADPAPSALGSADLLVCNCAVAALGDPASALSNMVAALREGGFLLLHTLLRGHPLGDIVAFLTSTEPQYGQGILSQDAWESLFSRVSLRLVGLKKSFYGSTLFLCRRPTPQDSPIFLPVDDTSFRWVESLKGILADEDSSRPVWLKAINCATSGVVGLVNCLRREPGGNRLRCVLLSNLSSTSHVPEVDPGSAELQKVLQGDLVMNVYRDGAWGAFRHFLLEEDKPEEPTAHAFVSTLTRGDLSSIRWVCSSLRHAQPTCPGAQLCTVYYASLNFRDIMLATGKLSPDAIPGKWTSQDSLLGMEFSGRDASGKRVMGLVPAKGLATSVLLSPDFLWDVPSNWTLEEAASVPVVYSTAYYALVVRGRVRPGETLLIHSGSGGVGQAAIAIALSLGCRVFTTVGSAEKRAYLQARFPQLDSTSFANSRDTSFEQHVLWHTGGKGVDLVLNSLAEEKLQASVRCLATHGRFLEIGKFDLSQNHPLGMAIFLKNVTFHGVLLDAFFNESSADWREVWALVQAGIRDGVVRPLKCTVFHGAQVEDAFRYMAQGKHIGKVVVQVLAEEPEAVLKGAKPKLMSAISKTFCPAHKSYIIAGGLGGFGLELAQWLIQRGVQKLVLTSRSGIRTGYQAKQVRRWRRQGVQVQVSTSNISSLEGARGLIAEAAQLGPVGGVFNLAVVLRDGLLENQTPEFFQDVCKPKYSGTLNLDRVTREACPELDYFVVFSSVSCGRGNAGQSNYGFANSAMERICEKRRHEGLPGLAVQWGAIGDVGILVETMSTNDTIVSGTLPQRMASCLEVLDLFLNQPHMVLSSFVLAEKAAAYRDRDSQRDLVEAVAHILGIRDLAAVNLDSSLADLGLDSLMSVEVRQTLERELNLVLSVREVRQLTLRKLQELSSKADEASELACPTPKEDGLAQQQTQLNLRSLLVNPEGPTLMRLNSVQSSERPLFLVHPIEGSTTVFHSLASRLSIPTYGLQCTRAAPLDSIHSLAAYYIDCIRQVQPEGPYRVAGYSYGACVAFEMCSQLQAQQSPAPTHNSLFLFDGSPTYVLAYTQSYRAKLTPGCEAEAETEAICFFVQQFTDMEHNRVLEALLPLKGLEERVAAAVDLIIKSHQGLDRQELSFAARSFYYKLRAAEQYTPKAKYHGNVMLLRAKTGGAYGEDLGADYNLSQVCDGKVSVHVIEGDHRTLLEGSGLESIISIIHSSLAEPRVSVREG
Chain of Fatty Acid Synthase Keto-reductase Domain (FASN KR) (P49327 whole entry, the tested form may be a part): as the sequence (P49327 whole entry) above

IC50 [1] [nM]	inhibition at 10 µM [2] [%]	IC50 [2] [nM]	IC50 (A2780 ovarian cells [3]) [µM]	IC50 (A2780 ovarian cells [4]) [nM]	Structure (SMILES)
2140	92.7	513	> 10	5890	O=C(C1CC1)N1CCC(CN2C(=O)C3(CCCC3)N=C2c2ccc(-c3ccc4occc4c3)cc2)CC1 [compound 75, 1-[4-(1-Benzofuran-5-yl)phenyl]-3-{[1-(cyclopropylcarbonyl)piperidin-4-yl]methyl}-1,3-diazaspiro[4.4]non-1-en-4-one]
794	99.2	129	> 10	513	O=C(C1CC1)N1CCC(CN2C(=O)C3(CCCC3)N=C2c2ccc(-c3ccc4[nH]ccc4c3)cc2)CC1 [compound 76, 3-{[1-(Cyclopropylcarbonyl)piperidin-4-yl]methyl}-2-[4-(1H-indol-5-yl)phenyl]-1,3-diazaspiro[4.4]non-1-en-4-one]
871	103	174	> 10	661	O=C(C1CC1)N1CCC(CN2C(=O)C3(CCCC3)N=C2c2ccc(-c3ccc4cnccc4c3)cc2)CC1 [compound 77, 3-{[1-(Cyclopropylcarbonyl)piperidin-4-yl]methyl}-2-(4-isoquinolin-6-ylphenyl)-1,3-diazaspiro[4.4]non-1-en-4-one]
324	108	61.7	> 10	145	O=C(C1CC1)N1CC(CN2C(=O)C3(CCCC3)N=C2c2ccc(-c3ccc4cnccc4c3)cc2)C1 [compound 79, 3-{[1-(Cyclopropylcarbonyl)azetidin-3-yl]methyl}-2-(4-isoquinolin-6-ylphenyl)-1,3-diazaspiro[4.4]non-1-en-4-one]
1480	92.1	437	> 10	2290	O=C(C1CC1)N1CC(CN2C(=O)C3(CCCC3)N=C2c2ccc(-c3ccc4occc4c3)cc2)C1 [compound 80, 2-[4-(1-Benzofuran-5-yl)phenyl]-3-{[1-(cyclopropylcarbonyl)azetidin-3-yl]methyl}-1,3-diazaspiro[4.4]non-1-en-4-one]
186	109	91.2	> 6.17	102	CN1CCC2(CC1)N=C(c1ccc(-c3ccc4[nH]ccc4c3)cc1)N(C[C@@H]1CCN(C(=O)C3CC3)C1)C2=O [compound 81, (R)-2-(4-(1H-Indol-5-yl)phenyl)-3-((1-(cyclopropanecarbonyl)pyrrolidin-3-yl)methyl)-8-methy-1,3,8-triazaspiro[4.5]dec-1-en-4-one]
1200	105	214	> 10	3720	O=C(C1CC1)N1CC[C@@H](CN2C(=O)C3(CCCC3)N=C2c2ccc(-c3ccc(Cl)cc3)cc2)C1 [compound 82]
2040	97.9	355	> 10	~2880	COc1ccc(-c2ccc(C3=NC4(CCCC4)C(=O)N3C[C@@H]3CCN(C(=O)C4CC4)C3)cc2)cc1 [compound 85, 3-{[(3R)-1-(Cyclopropylcarbonyl)pyrrolidin-3-yl]methyl}-2-(4′-methoxybiphenyl-4-yl)-1,3-diazaspiro[4.4]non-1-en-4-one]
1350	101	309	> 10	6310	C=CC(=O)N1CC[C@@H](CN2C(=O)C3(CCN(Cc4ccccc4)CC3)N=C2c2ccc(-c3ccc4occc4c3)cc2)C1 [compound 90, 3-{[(3R)-1-Acryloylpyrrolidin-3-yl]methyl}-2-[4-(1-benzofuran-5-yl)phenyl]-8-benzyl-1,3,8-triazaspiro[4.5]dec-1-en-4-one]
77.6	111	51.3	> 10	45.7	O=C(C1CC1)N1CC[C@@H](CN2C(=O)C3(CCCC3)N=C2c2ccc(-c3cccc4[nH]ncc34)cc2)C1 [compound 92, 3-{[(3R)-1-(Cyclopropylcarbonyl)pyrrolidin-3-yl]methyl}-2-[4-(1H-indazol-4-yl)phenyl]-1,3-diazaspiro[4.4]non-1-en-4-one]
263	116	75.9	> 10	~2090	Cc1cc(-c2ccc(Cl)cc2)ccc1C1=NC2(CCCC2)C(=O)N1C[C@@H]1CCN(C(=O)C2CC2)C1 [compound 93, 2-(4′-Chloro-3-methylbiphenyl-4-yl)-3-{[(3R)-1-(cyclopropylcarbonyl)pyrrolidin-3-yl]methyl}-1,3-diazaspiro[4.4]non-1-en-4-one]
891	111	145	> 10	~2140	Cc1cc(-c2ccc(Cl)cc2Cl)ccc1C1=NC2(CCCC2)C(=O)N1C[C@@H]1CCN(C(=O)C2CC2)C1 [compound 94, 3-{[(3R)-1-(Cyclopropylcarbonyl)pyrrolidin-3-yl]methyl}-2-(2′,4′-dichloro-3-methylbiphenyl-4-yl)-1,3-diazaspiro[4.4]non-1-en-4-one]
209	110	74.1	> 10	776	Cc1ccc(-c2ccc(C3=NC4(CC4)C(=O)N3C[C@@H]3CCN(C(=O)C4CC4)C3)cc2)cc1 [compound 100, 6-{[(3R)-1-(Cyclopropylcarbonyl)pyrrolidin-3-yl]methyl}-5-(4′-methylbiphenyl-4-yl)-4,6-diazaspiro[2.4]hept-4-en-7-one]
380	112	81.3	> 10	1700	Cc1cccc(-c2ccc(C3=NC4(CC4)C(=O)N3C[C@@H]3CCN(C(=O)C4CC4)C3)cc2)c1 [compound 101, 6-{[(3R)-1-(Cyclopropylcarbonyl)pyrrolidin-3-yl]methyl}-5-(3′-methylbiphenyl-4-yl)-4,6-diazaspiro[2.4]hept-4-en-7-one]
1070	107	209	> 10	2290	O=C(C1CC1)N1CC[C@@H](CN2C(=O)C3(CC3)N=C2c2ccc(-c3cccc(F)c3)cc2)C1 [compound 102, 6-{[(3R)-1-(Cyclopropylcarbonyl)pyrrolidin-3-yl]methyl}-5-(3′-fluorobiphenyl-4-yl)-4,6-diazaspiro[2.4]hept-4-en-7-one]
316	109	67.6	> 10	851	COc1ccc(-c2ccc(C3=NC4(CC4)C(=O)N3C[C@@H]3CCN(C(=O)C4CC4)C3)cc2)cc1 [compound 103, 6-{[(3R)-1-(Cyclopropylcarbonyl)pyrrolidin-3-yl]methyl}-5-(4′-methoxybiphenyl-4-yl)-4,6-diazaspiro[2.4]hept-4-en-7-one]
501	104	100	> 10	955	O=C(C1CC1)N1CC[C@@H](CN2C(=O)C3(CC3)N=C2c2ccc(-c3ccc(F)cc3)cc2)C1 [compound 105, 6-{[(3R)-1-(Cyclopropylcarbonyl)pyrrolidin-3-yl]methyl}-5-(4′-fluorobiphenyl-4-yl)-4,6-diazaspiro[2.4]hept-4-en-7-one]
603	110	112	> 10	741	O=C(C1CC1)N1CC[C@@H](CN2C(=O)C3(CCNCC3)N=C2c2ccc(-c3ccc4cnccc4c3)cc2)C1 [compound 106, 3-{[(3R)-1-(Cyclopropylcarbonyl)pyrrolidin-3-yl]methyl}-2-(4-isoquinolin-6-ylphenyl)-1,3,8-triazaspiro[4.5]dec-1-en-4-one]
1070	109	117	> 10	~1780	COc1cccc(-c2ccc(C3=NC4(CC4)C(=O)N3C[C@@H]3CCN(C(=O)C4CC4)C3)cc2)c1 [compound 113, 6-{[(3R)-1-(Cyclopropylcarbonyl)pyrrolidin-3-yl]methyl}-5-(3′-methoxybiphenyl-4-yl)-4,6-diazaspiro[2.4]hept-4-en-7-one]
234	107	75.9	> 10	~832	O=C(C1CC1)N1CC[C@@H](CN2C(=O)C3(CC3)N=C2c2ccc(-c3ccc(Cl)cc3)cc2)C1 [compound 114, 5-(4′-Chlorobiphenyl-4-yl)-6-{[(3R)-1-(cyclopropylcarbonyl)pyrrolidin-3-yl]methyl}-4,6-diazaspiro[2.4]hept-4-en-7-one]
123	113	30.2	> 10	~61.7	O=C(C1CC1)N1CC[C@@H](CN2C(=O)C3(CC3)N=C2c2ccc(-c3cccc(O)c3)cc2)C1 [compound 115, 6-{[(3R)-1-(Cyclopropylcarbonyl)pyrrolidin-3-yl]methyl}-5-(3′-hydroxybiphenyl-4-yl)-4,6-diazaspiro[2.4]hept-4-en-7-one]
